Data taken from PubChem BioAssay AID588571 (Sanford-Burnham Center for Chemical Genomics, 2011).
Active and inactive are the calls of the source.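 Rule for the calls: active = mean IC50 at or below 20 µM; inactive = the rest.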

test system: CHO-CHOP cells viability, ATPlite luminescence, 6 h; experiment: CHO-CHOP cell viability loss after compound exposure – 6 h exposure, ATPlite luminescence, cytotoxicity control for UPR adaptive arm activator project, SAR follow-up (AID 588571)

Structure (SMILES) | IC50
O=C(Nc1ccc(Br)c(C(F)(F)F)c1)c1cc(-c2ccncc2)nc2ccccc12 | > 80 µM (inactive)
O=C(Nc1ccc(Cl)cc1)c1cc(-c2ccncc2)nc2ccccc12 | 75.4 µM (inactive)
Cc1nc(Nc2nc(-c3ccccc3)cc(=O)[nH]2)nc2ccccc12 | 60.1 µM (inactive)
O=C(Nc1ccc(C(F)(F)F)cc1)c1cc(-c2ccncc2)nc2ccccc12 | 70.4 µM (inactive)
Cc1ccc(NC(=O)c2cc(-c3ccncc3)nc3ccccc23)cc1 | > 80 µM (inactive)
O=C(Nc1ccc(F)cc1)c1cc(-c2ccncc2)nc2ccccc12 | > 80 µM (inactive)
Cc1cc(Br)cc(NC(=O)c2cc(-c3ccncc3)nc3ccccc23)c1 | > 80 µM (inactive)
